Test [1] deals with T1, NocT (Agrobacterium fabrum, UniProt P35120).
T1 construct: The X-ray structures of the mature free-liganded NocT; made in house; host or cells: E. coli Rosetta pLysS
The test can be described thus: KD measurement by intrinsic protein fluorescence titration, wild-type NocT. Type of test: binding, Agrobacterium tumefaciens C58. As to conditions: 25°C, 25 mM Tris-HCl pH 8.0, 150 mM NaCl, 5 µM protein, triplicates; for Kd: read-out: KD (fluorescence titration), NocT wt. The procedure:
(§1) Ligand-NocT interaction was monitored by autofluorescence by exciting the protein at a wavelength of 295 nm and monitoring the quenching of fluorescence emission of tryptophan residues at 340 nm. All experiments were performed at 25°C in 25 mM Tris-HCl pH 8.0 and 150 mM NaCl with a fixed amount of proteins (5 µM) and increasing concentrations of ligand using a SpectraMax M5 microplate reader (Molecular Devices). […] Fluorescence measurements were done in triplicates. The data were analysed using Origin 7 software and fitted to the equation f = ΔFluorescencemax * abs(x)/(KD+abs(x)).

Test [2] addresses T1, NocT. The test can be described thus: KD measurement by isothermal titration calorimetry (ITC), wild-type NocT. Type of test: binding, Agrobacterium tumefaciens C58. The procedure: ITC experiments were performed with an ITC200 isothermal titration calorimeter from MicroCal Llc (Northampton, MA). The experiments were carried out at 20°C. Protein concentration in the microcalorimeter cell (0.2 ml) varied from 100 to 150 µM. Nineteen injections of 2 µl of the ligand solution concentration from 1.5 to 1.6 mM were performed at intervals of 180 s while stirring at 1000 rpm. The experimental data were fitted to theoretical titration curves with software supplied by MicroCal (ORIGIN). This software uses the relationship between the heat generated by each injection and ΔH (enthalpy change in Kcal.mol^−1), Ka (the association binding constant in M^−1), n (the number of binding sites), total protein concentration and free and total ligand concentrations.
On the technique in general: In ITC the heat of successive injections is recorded.

The subject of test [3] is A. tumefaciens C58 nocT mutant. The test can be described thus: Growth assay on opine as sole carbon and nitrogen source, nocT mutant. Type of test: cell-based, Agrobacterium tumefaciens C58. As to conditions: opine as sole source of carbon and nitrogen at 3 mM, AB medium, OD600 after 24 hours. An excerpt:
(§2) The A. tumefaciens C58 derivatives carrying pTi-accR::Gm and pTi::Gm (used as C58-control in plant assay) in which the genes accR (atu6138) and atu6147 were disrupted by inserting a gentamicin resistance cassette were already constructed. The A. tumefaciens C58 derivatives harbouring the Ti-plasmid pTi-nos::Km, pTi-ocd::Gm, pTi-nocT::Gm were obtained by insertion of a gentamicin (Gm) or kanamycin (Km) resistance cassette into the genes nos ( = atu6015), ocd ( = atu6016), and nocT ( = atu6027) as described previously.
(§3) A. tumefaciens was cultivated at 30°C in Agrobacterium broth (AB) minimal medium supplemented with ammonium chloride (1 g/L) and mannitol (2 g/L) except when an alternative source of carbon and nitrogen is indicated, or in Luria-Bertani modified medium (LBm; NaCl 5 g/L). In growth assay nopaline and pyronopaline were added as a sole carbon and nitrogen source at 3 mM (ca 1 g/L). The antibiotics gentamycin and kanamycin were added at 25 µg/mL and 50 µg/mL, respectively.

In test [4] the test system is A. tumefaciens C58 ocd mutant. The test can be described thus: Growth assay on opine as sole carbon and nitrogen source, ocd mutant. Type of test: cell-based, Agrobacterium tumefaciens C58. The note with it: opine as sole source of carbon and nitrogen at 3 mM, AB medium, OD600 after 24 hours.
From the text: as §2, §3

A further test deals with T2, NocT-M117S (Agrobacterium fabrum, UniProt P35120, M117S).
T2 construct: The X-ray structures of the mature free-liganded NocT; made in house; host or cells: E. coli Rosetta pLysS
T2 sequence (P35120 26-283 M117S): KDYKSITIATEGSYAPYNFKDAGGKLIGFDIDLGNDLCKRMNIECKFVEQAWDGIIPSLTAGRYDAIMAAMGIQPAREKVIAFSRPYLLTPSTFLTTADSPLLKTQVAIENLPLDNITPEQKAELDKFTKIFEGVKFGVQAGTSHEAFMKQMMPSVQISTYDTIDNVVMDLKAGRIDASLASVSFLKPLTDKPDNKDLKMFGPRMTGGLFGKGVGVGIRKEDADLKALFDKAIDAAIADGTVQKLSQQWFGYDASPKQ
The test can be described thus: KD measurement by fluorescence titration, NocT-M117S mutant. Type of test: binding, Agrobacterium tumefaciens C58.
From the text: (§4) Using 5′-[…] and 5′-[…] primers, nocT gene of A. tumefaciens C58 was amplified and then cloned into pET-9aSN1 expression vector (a gift from S. Chéruel, IBBMC, University Paris Sud, Orsay, France). The pET-9aSN1-nocT was used as template to generate directed mutations with QuikChange II XL directed mutagenesis kit (Stratagene). For mutations Met117 to Ser (M117S) and Asn (M117N), the synthetic forward primers 5′–[…] and 5′-[…] and their reverse complemented primers were designed. The nucleotide sequence of all alleles was confirmed by DNA-sequence analysis (GATC, France).
as §1

A further test deals with T3, NocT-M117N (Agrobacterium fabrum, UniProt P35120, M117N).
T3 construct: The X-ray structures of the mature free-liganded NocT; made in house; host or cells: E. coli Rosetta pLysS
T3 sequence (P35120 26-283 M117N): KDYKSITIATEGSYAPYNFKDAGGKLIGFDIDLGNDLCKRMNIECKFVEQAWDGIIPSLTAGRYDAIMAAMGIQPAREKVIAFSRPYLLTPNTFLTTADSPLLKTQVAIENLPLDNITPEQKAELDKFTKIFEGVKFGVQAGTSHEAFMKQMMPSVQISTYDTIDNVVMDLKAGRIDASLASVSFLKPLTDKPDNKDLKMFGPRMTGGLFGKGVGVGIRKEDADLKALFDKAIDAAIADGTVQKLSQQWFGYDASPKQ
The test can be described thus: KD measurement by fluorescence titration, NocT-M117N mutant. The format is binding, Agrobacterium tumefaciens C58.
From the text: as §4, §1

Where [5] appears, read: 20°C, protein 100 to 150 µM, triplicates.

“And” between values parts separate entries of the source, which are not always exact repeats. Equal values may be shown once.

T1 sequence (P35120 26-283): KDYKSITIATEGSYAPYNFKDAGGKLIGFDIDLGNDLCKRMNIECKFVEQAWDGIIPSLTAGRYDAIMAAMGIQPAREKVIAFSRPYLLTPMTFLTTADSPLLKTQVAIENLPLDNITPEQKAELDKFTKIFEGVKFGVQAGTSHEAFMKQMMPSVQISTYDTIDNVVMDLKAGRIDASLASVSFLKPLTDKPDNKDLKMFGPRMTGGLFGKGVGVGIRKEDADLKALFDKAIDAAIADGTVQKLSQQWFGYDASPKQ

As for `N=C(N)NCCC[C@H](N)C(=O)O` [arginine, reference compound], the “KD (fluorescence titration), NocT wt” value at NocT [1] was “no interaction”. Further, the “KD (ITC), NocT wt” value on NocT [2] (setting [5]) was “no interaction”.

For `N[C@@H](Cc1c[nH]cn1)C(=O)O` [histidine, reference compound], the “KD (ITC), NocT wt” value on NocT [2] (setting [5]) is on record as “no interaction”.

`N=C(N)NCCCC(NC(CCC(=O)O)C(=O)O)C(=O)O` (centres unmarked) [nopaline]: the Kd on NocT [1] is 3700 nM. For the same compound, the “growth of nocT mutant” value in test [3] is on record as “could not grow”. Besides, the “growth of ocd mutant” value in test [4] is given as “strongly impaired”.

Take `NCCC[C@H](N)C(=O)O` [ornithine, reference compound]: the “KD (ITC), NocT wt” value at NocT [2] (setting [5]) is reported as “no interaction”.

For the compound `N=C(N)NCCCC(C(=O)O)N1C(=O)CCC1C(=O)O` (centres unmarked) [pyronopaline], the Kd on NocT [1] was 570 nM and 600 nM; at NocT [2] (20°C, protein 100 to 150 µM, triplicates, read-out: KD (ITC), NocT wt), 580 ± 50 nM; on NocT-M117S, 37800 ± 9000 nM; at NocT-M117N it was 39900 ± 7000 nM. At NocT [2] (20°C), the “TΔS of binding (ITC)” value amounted to 12.6 kcal/mol. Also, the “enthalpy of binding (ITC)” value on NocT [2] (positive enthalpy) was determined as 2.1 kcal/mol. Further, the “KD fold higher than that of the WT protein, NocT-M117S” value at NocT-M117S (mutant vs WT NocT) was 76 fold. At NocT-M117N (mutant vs WT NocT), the “KD fold higher than that of the WT protein, NocT-M117N” value is 76 fold. Further, the “growth of nocT mutant” value in test [3] is “could not grow”. Further, in test [4], the “growth of ocd mutant” value was “strongly impaired”.

The record behind these values is publication PMC4192606, “Agrobacterium Uses a Unique Ligand-Binding Mode for Trapping Opines and Acquiring A Competitive Advantage in the Niche Construction on Plant Host” (PLoS Pathogens, 2014).
